What was measured:
[1] = biological target: T1, BRD4 BD2 (Homo sapiens, UniProt O60885); test: NanoBRET bromodomain assay, BRD4 BD2; format: cell-based; settings: for Fold selectivity BRD4 BD1/BD2: IC50 BD1/IC50 BD2; for IC50: NanoBRET, HEK293 cells transfected with NanoLuc-BRD4-BD2
T1 construct: HEK293 cells were transfected using NanoLuc-BRD4-BD1 or NanoLuc-BRD4-BD2 fusion vectors; host or cells: HEK293
Experimental: (§1) HEK293 cells were transfected using NanoLuc-BRD4-BD1 or NanoLuc-BRD4-BD2 fusion vectors and incubated at 37° C. in an atmosphere of 5% CO2 for 20-24 hours. The transfected cells were then dispensed into 96-well plates using 90 μl cell suspension per well containing 2×10^5 cells/ml in Opti-MEM and 1x final concentration of tracer. 90 μl per well of cell suspension without tracer was also dispensed into at least 3 wells as “No tracer control samples” for background correction. Serially diluted test compounds were prepared at 1000× concentration in DMSO and further diluted to 10× concentration in Opti-MEM. 10 μl per well of the serially diluted 10× test compound was added to the 96-well plates containing cells with 1x tracer. Plates were then incubated at 37° C.+5% C02 incubator for 2 hours. Immediately prior to BRET measurements, a 3x solution consisting of 1:166 dilution of Nano-Glo® Substrate plus a 1:500 dilution of Extracellular NanoLuc Inhibitor in Opti-MEM was prepared and 50 μl per well was added to the cells. Donor emission (450 nm) and acceptor emission (610 nm) were measured using PHERAstar (BMG LabTech). For data analysis, the raw BRET ratio was generated and converted to milliBRET units with background correction using the formula: [(Acceptorsample/Donorsample)−(Acceptorno tracer control/Donorno tracer control)]×1000. The mBU data was plotted as a function of compound concentration and IC50s for BRET assay were determined by nonlinear regression analysis of concentration response curves using the GraphPad Prism software.
Fold Selectivity Calculated (IC50 BD1/IC50 BD2).

[2] = biological target: T2, BRD4 BD1 (Homo sapiens, UniProt O60885); test: NanoBRET bromodomain assay, BRD4 BD1; format: cell-based; settings: HEK293 cells transfected with NanoLuc-BRD4-BD1
T2 construct: HEK293 cells were transfected using NanoLuc-BRD4-BD1 or NanoLuc-BRD4-BD2 fusion vectors; host or cells: HEK293
Experimental: as §1

Structure (SMILES): Cc1cccc(C)c1Oc1cn(C2COC2)c(=O)cc1-c1cn(C)c(=O)c2[nH]c(-c3ccccc3F)cc12 [Example 41, 4-(5-(2,6-dimethylphenoxy)-1-(oxetan-3-yl)-2-oxo-1,2-dihydropyridin-4-yl)-2-(2-fluorophenyl)-6-methyl-1,6-dihydro-7H-pyrrolo[2,3-c] pyridin-7-one]
- Fold selectivity BRD4 BD1/BD2 [1]: xx (Fold >50 and ≤200)
- IC50 [1]: 50 to 200 nM
- IC50 [2]: > 1000 nM

Structure (SMILES): Cc1cccc(C)c1Oc1cn(C)c(=O)cc1-c1cn(C)c(=O)c2[nH]c(-c3cc(F)ccc3F)cc12 [Example 46, 2-(2,5-difluorophenyl)-4-(5-(2,6-dimethylphenoxy)-1-methyl-2-oxo-1,2-dihydropyridin-4-yl)-6-methyl-1,6-dihydro-7H-pyrrolo[2,3-c]pyridin-7-one]
- Fold selectivity BRD4 BD1/BD2 [1]: xxx (Fold >200)
- IC50 [1]: ≤ 50 nM
- IC50 [2]: > 1000 nM

Structure (SMILES): Cc1cccc(C)c1Oc1cn(C)c(=O)cc1-c1cn(C)c(=O)c2[nH]c(-c3ccnnc3)cc12 [Example 27, 4-(5-(2,6-dimethylphenoxy)-1-methyl-2-oxo-1,2-dihydropyridin-4-yl)-6-methyl-2-(pyridazin-4-yl)-1,6-dihydro-7H-pyrrolo[2,3-c] pyridin-7-one]
- Fold selectivity BRD4 BD1/BD2 [1]: xx (Fold >50 and ≤200)
- IC50 [1]: 50 to 200 nM
- IC50 [2]: > 1000 nM

Structure (SMILES): Cc1cccc(C)c1Oc1cn(C2COC2)c(=O)cc1-c1cn(C)c(=O)c2[nH]c(-c3cnn(C)c3C)cc12 [Example 40, 2-(1,5-dimethyl-1H-pyrazol-4-yl)-4-(5-(2,6-dimethylphenoxy)-1-(oxetan-3-yl)-2-oxo-1,2-dihydropyridin-4-yl)-6-methyl-1,6-dihydro-7H-pyrrolo[2,3-c] pyridin-7-one]
- Fold selectivity BRD4 BD1/BD2 [1]: x (Fold >2 and ≤50)
- IC50 [1]: ≤ 50 nM
- IC50 [2]: 50 to 500 nM

Structure (SMILES): CC#Cc1cn(C)c(=O)cc1-c1cn(C)c(=O)c2[nH]c(-c3cnn(C(C)C)c3)cc12 [Example 57, 4-[2-(1-isopropylpyrazol-4-yl)-6-methyl-7-oxo-1H-pyrrolo[2,3-c]pyridin-4-yl]-1-methyl-5-(prop-1-yn-1-yl)pyridin-2-one]
- Fold selectivity BRD4 BD1/BD2 [1]: x (Fold >2 and ≤50)
- IC50 [1]: ≤ 50 nM
- IC50 [2]: 50 to 500 nM

Structure (SMILES): Cc1cccc(C)c1Oc1cn(C)c(=O)cc1-c1cn(C)c(=O)c2[nH]c(-c3ncccn3)cc12 [Example 39, 4-(5-(2,6-dimethylphenoxy)-1-methyl-2-oxo-1,2-dihydropyridin-4-yl)-6-methyl-2-(pyrimidin-2-yl)-1,6-dihydro-7H-pyrrolo[2,3-c] pyridin-7-one]
- Fold selectivity BRD4 BD1/BD2 [1]: xx (Fold >50 and ≤200)
- IC50 [1]: 50 to 200 nM
- IC50 [2]: > 1000 nM

Structure (SMILES): Cc1cccc(C)c1Oc1cn(C2CNC2)c(=O)cc1-c1cn(C)c(=O)c2[nH]c(-c3cnn(C(C)C)c3C)cc12 [Example 43, 4-(1-(azetidin-3-yl)-5-(2,6-dimethylphenoxy)-2-oxo-1,2-dihydropyridin-4-yl)-2-(1-isopropyl-5-methyl-1H-pyrazol-4-yl)-6-methyl-1,6-dihydro-7H-pyrrolo[2,3-c] pyridin-7-one]
- Fold selectivity BRD4 BD1/BD2 [1]: x (Fold >2 and ≤50)
- IC50 [1]: > 1000 nM
- IC50 [2]: > 1000 nM

Structure (SMILES): C#Cc1cn(C)c(=O)cc1-c1cn(C)c(=O)c2[nH]c(-c3cnn(C(C)C)c3)cc12 [Example 56, 5-ethynyl-4-[2-(1-isopropylpyrazol-4-yl)-6-methyl-7-oxo-1H-pyrrolo[2,3-c]pyridin-4-yl]-1-methylpyridin-2-one]
- Fold selectivity BRD4 BD1/BD2 [1]: x (Fold >2 and ≤50)
- IC50 [1]: ≤ 50 nM
- IC50 [2]: 50 to 500 nM

Structure (SMILES): Cn1cc(C2CCCC2)c(-c2cn(C)c(=O)c3[nH]c(-c4ccccc4)cc23)cc1=O [Example 55, 5-cyclopentyl-1-methyl-4-{6-methyl-7-oxo-2-phenyl-1H-pyrrolo[2,3-c]pyridin-4-yl}pyridin-2-one]
- Fold selectivity BRD4 BD1/BD2 [1]: x (Fold >2 and ≤50)
- IC50 [1]: ≤ 50 nM
- IC50 [2]: 50 to 500 nM

Structure (SMILES): CC(C)n1cc(-c2cc3c(-c4cc(=O)n(C)cc4C4CCCC4)cn(C)c(=O)c3[nH]2)cn1 [Example 53, 4-(5-cyclopentyl-1-methyl-2-oxo-1,2-dihydropyridin-4-yl)-2-(1-isopropyl-1H-pyrazol-4-yl)-6-methyl-1,6-dihydro-7H-pyrrolo[2,3-c]pyridin-7-one]
- Fold selectivity BRD4 BD1/BD2 [1]: xx (Fold >50 and ≤200)
- IC50 [1]: ≤ 50 nM
- IC50 [2]: 50 to 500 nM

Structure (SMILES): Cc1cc(-c2cc3c(-c4cc(=O)n(C)cc4C4CCCC4)cn(C)c(=O)c3[nH]2)n(C)n1 [Example 52, 5-cyclopentyl-4-[2-(2,5-dimethylpyrazol-3-yl)-6-methyl-7-oxo-1H-pyrrolo[2,3-c]pyridin-4-yl]-1-methylpyridin-2-one]
- Fold selectivity BRD4 BD1/BD2 [1]: x (Fold >2 and ≤50)
- IC50 [1]: ≤ 50 nM
- IC50 [2]: 50 to 500 nM

Structure (SMILES): Cc1cccc(C)c1Oc1cn(C)c(=O)cc1-c1cn(C)c(=O)c2[nH]c(-c3c(F)cccc3F)cc12 [Example 37, 2-(2,6-difluorophenyl)-4-(5-(2,6-dimethylphenoxy)-1-methyl-2-oxo-1,2-dihydropyridin-4-yl)-6-methyl-1,6-dihydro-7H-pyrrolo[2,3-c] pyridin-7-one]
- Fold selectivity BRD4 BD1/BD2 [1]: xx (Fold >50 and ≤200)
- IC50 [1]: 50 to 200 nM
- IC50 [2]: > 1000 nM

Structure (SMILES): Cc1cc(-c2cc3c(-c4cc(=O)n(C)cc4Oc4c(C)cccc4C)cn(C)c(=O)c3[nH]2)ccn1 [Example 45, 4-(5-(2,6-dimethylphenoxy)-1-methyl-2-oxo-1,2-dihydropyridin-4-yl)-6-methyl-2-(2-methylpyridin-4-yl)-1,6-dihydro-7H-pyrrolo[2,3-c]pyridin-7-one]
- Fold selectivity BRD4 BD1/BD2 [1]: x (Fold >2 and ≤50)
- IC50 [1]: ≤ 50 nM
- IC50 [2]: 500 to 1000 nM

Structure (SMILES): Cc1cccc(C)c1Oc1cn(C)c(=O)cc1-c1cn(C)c(=O)c2[nH]c(-c3cnn(CS(C)(=O)=O)c3)cc12 [Example 65, 4-(5-(2,6-dimethylphenoxy)-1-methyl-2-oxo-1,2-dihydropyridin-4-yl)-6-methyl-2-(1-((methylsulfonyl)methyl)-1H-pyrazol-4-yl)-1,6-dihydro-7H-pyrrolo[2,3-c]pyridin-7-one]
- Fold selectivity BRD4 BD1/BD2 [1]: x (Fold >2 and ≤50)
- IC50 [1]: ≤ 50 nM
- IC50 [2]: > 1000 nM

Structure (SMILES): Cc1cccc(C)c1Oc1cn(C)c(=O)cc1-c1cn(C)c(=O)c2[nH]c(-c3ccccc3C#N)cc12 [Example 48, 2-{4-[5-(2,6-dimethylphenoxy)-1-methyl-2-oxopyridin-4-yl]-6-methyl-7-oxo-1H-pyrrolo[2,3-c]pyridin-2-yl}benzonitrile]
- Fold selectivity BRD4 BD1/BD2 [1]: xxx (Fold >200)
- IC50 [1]: ≤ 50 nM
- IC50 [2]: > 1000 nM

Structure (SMILES): Cc1cccc(C)c1Oc1cn(C2CNC2)c(=O)cc1-c1cn(C)c(=O)c2[nH]c(-c3cn(C(C)C)nc3C)cc12 [Example 42, 4-(1-(azetidin-3-yl)-5-(2,6-dimethylphenoxy)-2-oxo-1,2-dihydropyridin-4-yl)-2-(1-isopropyl-3-methyl-1H-pyrazol-4-yl)-6-methyl-1,6-dihydro-7H-pyrrolo[2,3-c]pyridin-7-one]
- Fold selectivity BRD4 BD1/BD2 [1]: xx (Fold >50 and ≤200)
- IC50 [1]: 50 to 200 nM
- IC50 [2]: > 1000 nM

Structure (SMILES): Cc1cc(-c2cc3c(-c4cc(=O)n(C)cc4Oc4c(C)cccc4C)cn(C)c(=O)c3[nH]2)ncn1 [Example 38, 4-(5-(2,6-dimethylphenoxy)-1-methyl-2-oxo-1,2-dihydropyridin-4-yl)-6-methyl-2-(6-methylpyrimidin-4-yl)-1,6-dihydro-7H-pyrrolo[2,3-c] pyridin-7-one]
- Fold selectivity BRD4 BD1/BD2 [1]: xxx (Fold >200)
- IC50 [1]: ≤ 50 nM
- IC50 [2]: > 1000 nM

— patent US20240308998A1, “PYRROLOPYRIDONE DERIVATIVES USEFUL IN THE TREATMENT OF CANCER” (Tay Therapeutics Limited, priority 2021, published 2024)
